Results from the NIST ThermoML archive (doi:10.1016/j.jct.2004.03.002).
± gives the expanded uncertainty stated by the source.

Experiments:
[1] = molar enthalpy of vaporization or sublimation; details: Crystal
[2] = Crystal
[3] = Molar enthalpy of transition or fusion; details: Crystal

With `O=C1C=CC(=O)C=C1` [1,4-benzoquinone] the molar enthalpy ([1]; 277.3 K) was 15.4 ± 0.598 kcal/mol, the molar enthalpy ([1]; 278.2 K) was 15.1 ± 0.598 kcal/mol and the molar enthalpy ([1]; 279.2 K) was 14.9 ± 0.598 kcal/mol. For the same molecule, the molar enthalpy ([1]; 298.15 K) was 15.9 ± 0.884 kcal/mol, the Triple point temperature ([2]; DTA) was 385.07 ± 0.68 K and the Triple point temperature ([2]; heat flux calorimetry) was 385.65 ± 0.24 K. For the same molecule, the “Molar enthalpy of transition or fusion” value ([3]; DSC) was 4.4 ± 0.108 kcal/mol and the “Molar enthalpy of transition or fusion” value ([3]; heat flux calorimetry) was 4.39 ± 0.174 kcal/mol.

`CC1=C(C)C(=O)C(C)=C(C)C1=O` [1,4-benzoquinone, tetramethyl-] showed a molar enthalpy ([1]; 297.3 K) of 22.3 ± 0.765 kcal/mol, a molar enthalpy ([1]; 297.4 K) of 21.9 ± 0.765 kcal/mol and a molar enthalpy ([1]; 298.15 K) of 22.3 ± 1.05 kcal/mol. The Triple point temperature ([2]; DTA) was 384.12 ± 0.64 K, the Triple point temperature ([2]; heat flux calorimetry) was 384.84 ± 0.09 K and the “Molar enthalpy of transition or fusion” value ([3]; DSC) was 4.4 ± 0.105 kcal/mol. The “Molar enthalpy of transition or fusion” value ([3]; heat flux calorimetry) was 4.431 ± 0.0382 kcal/mol.
